# Patent US20230364198A1, “C-Peptide as a Therapy for Patients with Diabetes” (University of Cincinnati, priority 2022, published 2023)
# Where “and” joins values, the source holds several entries; their conditions need not be identical. Identical values can stand only once. Entries after “also recorded” stand apart in the source; their conditions may differ. Like-named read-outs stand apart in the source and are kept apart here. No end group written: not given here.
# Experiments:
# [1] = tested on: adult mongrel dogs; experiment: Hyperinsulinemic euglycemic (Pd1) / hypoglycemic (Pd2) clamp with IV C-peptide or saline coinfusion in dogs; type: in vivo, dog; conditions: for glucagon secretion during euglycemic/hyperinsulinemic conditions (words): Pd1, IV C-peptide with insulin vs IV saline with insulin
# Experimental: Studies were carried out on 18-hour fasted adult mongrel dogs (21 ± 4 kg; mean ± SD; 5 male, 4 female), aged 12.1 ± 0.6 months and acquired from a US Department of Agriculture-approved vendor. The animals were housed in a facility with a 12-hour light/12-hour dark cycle (lights on at 06:00 hours) and fed once daily a standard chow and meat diet (34% protein, 14.5% fat, 46% carbohydrate, and 5.5% fiber based on dry weight) that was weight maintaining.
# Two weeks prior to being studied, each dog underwent surgery under general anesthesia to insert sampling catheters in a femoral artery, the hepatic portal vein, and the left common hepatic vein and to place blood flow probes (Transonic Systems) around the hepatic portal vein and hepatic artery. Two experiments were conducted on each animal, with the first being approximately 15 days after surgery and the second approximately 15 days later. Two days before each experiment, blood was drawn to measure leukocyte and hematocrit counts for each animal. […] On the morning of each experiment, the sampling catheters and flow probes were removed from their subcutaneous pockets under local anesthesia (2% lidocaine, Hospira), and the animal was placed in a Pavlov harness. Intravenous catheters were then inserted into a cephalic and saphenous vein to allow peripheral infusions as necessary. The animal was then allowed to rest for 100 minutes, after which basal samples were collected from the artery and portal and hepatic veins between -20 and 0 minutes.
# After the 0-minute sample was collected, experimental period 1 (Pd1) began with the infusion of insulin at 1 mU/kg/min into a leg vein (FIG. 1). At the same time, a leg vein infusion of either canine CPEP (10 pmol/kg/min; AnaSpec) or SAL was also started, and dextrose was infused as needed to maintain euglycemia throughout Pd1 (0-120 minutes). Studies were randomized such that 4 of the 9 dogs received the C-peptide on the first study and the other 5 received saline first. At minute 120, the dextrose infusion was reduced, and the plasma glucose level was allowed to fall to approximately 50 mg/dL, where it was clamped (Pd2; 120-240 minutes; FIG. 1). At the end of the first experiment, all infusions were halted with the exception of glucose, which was infused as needed to restore euglycemia. Once that infusion was no longer required, the catheters and flow probes were placed back into subcutaneous pockets under general anesthesia. After the second experiment, animals were euthanized with pentobarbital, the abdomen was opened, and the positions of the catheter tips were verified.
# The processing of blood samples has been described previously. Plasma glucose was analyzed using the glucose oxidase method (Analox Instruments). Insulin, glucagon, and C-peptide were measured using commercially available radioimmunoassay (RIA) kits from MilliporeSigma, and cortisol was measured using an RIA protocol developed by the Vanderbilt University Medical Center Hormone Assay & Analytical Services Core using an in-house antibody (gift from W. Nicholson) and 125I-cortisol (MP Biomedicals). Catecholamines were measured using high-performance liquid chromatography, while NEFA (FUJIFILM Medical Systems) and lactate and glycerol concentrations were measured using fluorometric assays.
# Hepatic blood flow was measured using ultrasonic flow probes (Transonic Systems). Net hepatic glucose balance (NHGB), hepatic sinusoidal insulin and glucagon levels, and non-hepatic glucose uptake were calculated as described previously, while plasma glucose levels were converted to whole blood values for the calculation of NHGB. Glucagon was measured every 30 minutes during Pd1 and Pd2, and those data are expressed as absolute values and as Δ AUC. […]
# [2] = dogs; cited from earlier work
# [3] = humans; cited from earlier work
# [4] = in vivo; cited from earlier work
sequence,measurement,setting,value
EVEDLQVRDVELAGAPGEGGLQPLALEGALQ [C-peptide],glucagon secretion during euglycemic/hyperinsulinemic conditions (words),[1],preserved glucagon secretion; also recorded: prevented the expected decline in glucagon secretion; also recorded: preserves basal glucagon secretion
same,glucagon secretion during euglycemic/hyperinsulinemic conditions (words),[1]; listed as CPEP,glucagon secretion decreased less
same,glucagon secretion during hypoglycemic/hyperinsulinemic conditions,"[1]; Pd2, IV C-peptide with insulin vs IV saline with insulin",doubled glucagon secretion
same,reduction in exogenous glucose required to sustain the plasma glucose at 50 mg/dL vs SAL,[1]; final 90 minutes of Pd2,47%
same,exogenous glucose infusion rate (GIR) AUC,"[1]; final 90 minutes of Pd2, glucose clamped at 50 mg/dL, mean ± SEM",37 ± 16 mg/kg × 90 minutes
same,impact on net hepatic uptake of NEFA and glycerol,[1]; hyperinsulinemia of Pd1,no additional impact
same,impact on lipolysis (NEFA and glycerol levels),"[1]; hypoglycemia, Pd2",no impact on lipolysis
same,increase in glucagon secretion in the CPEP group compared with SAL,"[1]; insulin-induced hypoglycemia (Pd2), IV C-peptide 10 pmol/kg/min with insulin 1 mU/kg/min",2 fold
same,"epinephrine, norepinephrine and cortisol levels, SAL vs CPEP","[1]; insulin-induced hypoglycemia, Pd2",no significant difference between treatments
same,increase in net hepatic glucose output (net HGP) vs SAL,"[1]; insulin-induced hypoglycemia, final 90 minutes of Pd2",75%
same,increase in net hepatic glucose output (net HGP) vs SAL,"[1]; insulin-induced hypoglycemia, final 90 minutes of Pd2, listed as CPEP",75% and 73%
same,clearance rate of C-peptide,[2],~ 11.6 mL/kg/min
same,clearance rate of C-peptide,[3],~ 4.4 mL/kg/min
same,C-peptide extraction by the liver as share of its clearance,[4],approximately 5%
